Test results reported in patent US7420051B2, “Synthetic process for the manufacture of an ecteinaschidin compound” (Pharma Mar, S.A., priority 2000, dated 2008).

Tests used:
Format in all cases: cell-based
[1] = tested on: P-388 (suspension culture of a lymphoid neoplasm from DBA/2 mouse); test: Cytotoxic activity screening, P-388 cells; details: three days of incubation, approximate IC50
Method: (§1) Cell Cultures. Cells were maintained in logarithmic phase of growth in Eagle's Minimum Essential Medium, with Earle's Balanced Salts, with 2.0 mM L-glutamine, with non-essential amino acids, without sodium bicarbonate (EMEM/neaa); supplemented with 10% Fetal Calf Serum (FCS), 10^−2 M sodium bicarbonate and 0.1 g/l penicillin-G+streptomycin sulfate.
(§2) A simple screening procedure has been carried out to determine and compare the antitumour activity of these compounds, using an adapted form of the method described by Bergeron et al (1984). The tumour cell line employed have been P-388 (suspension culture of a lymphoid neoplasm from DBA/2 mouse), A-549 (monolayer culture of a human lung carcinoma), HT-29 (monolayer culture of a human colon carcinoma) and MEL-28 (monolayer culture of a human melanoma).
P-388 cell were seeded into 16 mm wells at 1×10^4 cells per well in 1 ml aliquots of MEM 5FCS containing the indicated concentration of drug. A separate set of cultures without drug was seeded as control growth to ensure that cells remained in exponential phase of growth. All determinations were carried out in duplicate.

[2] = tested on: HT-29 (monolayer culture of a human colon carcinoma); test: Cytotoxic activity screening, HT-29 cells; details: three days of incubation, Crystal Violet, approximate IC50
Method: as §1, §2
(§3) A-549, HT-29 and MEL-28 were seeded into 16 mm wells at 2×10^4 cells per well in 1 ml aliquots of MEM 10FCS containing the indicated concentration of drug. A separate set of cultures without drug was seeded as control growth to ensure that cells remained in exponential phase of growth. All determinations were carried out in duplicate. After three days of incubation at 37° C., 10% CO2 in a 98% humid atmosphere, the wells were stained with 0.1% Crystal Violet. An approximately IC50 was determined by comparing the growth in wells with drug to the growth in wells control.

[3] = tested on: MEL-28 (monolayer culture of a human melanoma); test: Cytotoxic activity screening, MEL-28 cells; details: SK-MEL-28, 72 h, three days of incubation, Crystal Violet, approximate IC50
Method: as §1, §2, §3

[4] = tested on: A-549 (monolayer culture of a human lung carcinoma); test: Cytotoxic activity screening, A-549 cells; details: three days of incubation, Crystal Violet, approximate IC50
Method: as §1, §2, §3

DU-145 = test: Cytotoxic activity screening, DU-145 cells
CV-1 = test: Cytotoxic activity screening, CV-1 cells; details: Cercopithecidae
[5] = Homo sapiens, DU-145, DU-145 cells

| Compound | IC50 ([1]; Mus musculus, P388, 72 h) | IC50 ([2]; Homo sapiens, HT-29, 72 h) | IC50 [3] | IC50 ([4]; Homo sapiens, A549, 72 h) | IC50 (DU-145; [5]) | IC50 (CV-1) | IC50 [1] | IC50 [2] | IC50 [4] | IC50 (DU-145; DU-145 cells) |
| --- | --- | --- | --- | --- | --- | --- | --- | --- | --- | --- |
| COc1c(C)cc2c(c1O)[C@@H]1C3Cc4c(OC(C)=O)c(C)c5c(c4[C@H](CNC(=O)[C@@H](C)NC(=O)CC(C)C)N3[C@@H](C#N)[C@H](C2)N1C)OCO5 (some centres unmarked) | 0.0001 µM | 0.0001 µM | 0.0001 µM | 0.0001 µM | 0.0001 µM |  |  |  |  |  |
| COc1c(C)cc2c(c1O)[C@@H]1C3Cc4c(OC(C)=O)c(C)c5c(c4[C@H](CNC(=O)[C@@H](C)NC(=O)/C=C/c4cccc(C(F)(F)F)c4)N3[C@@H](C#N)[C@H](C2)N1C)OCO5 (some centres unmarked) | 0.001 µM | 0.001 µM | 0.001 µM | 0.001 µM | 0.001 µM |  |  |  |  |  |
| COc1c(C)cc2c(c1O)[C@@H]1C3Cc4c(OC(C)=O)c(C)c5c(c4[C@H](CNC(=O)[C@H](C)NC(=O)C(F)(F)F)N3[C@@H](C#N)[C@H](C2)N1C)OCO5 (some centres unmarked) | 0.0001 µM | 0.0001 µM | 0.0001 µM | 0.0001 µM | 0.0001 µM |  |  |  |  |  |
| C=CCOc1c(C)c2c(c3c1CC1[C@H]4c5c(cc(C)c(OC)c5O)C[C@@H]([C@H](C#N)N1[C@H]3CNC(=O)[C@H](C)NC(=O)C(F)(F)F)N4C)OCO2 (some centres unmarked) | 0.001 µM | 0.001 µM | 0.001 µM | 0.001 µM | 0.001 µM |  |  |  |  |  |
| COc1c(C)cc2c(c1O)[C@@H]1C3Cc4c(O)c(C)c5c(c4[C@H](CNC(=O)[C@H](C)NC(=O)C(F)(F)F)N3[C@@H](C#N)[C@H](C2)N1C)OCO5 (some centres unmarked) | 0.01 µM | 0.01 µM | 0.01 µM | 0.01 µM | 0.01 µM |  |  |  |  |  |
| COc1c(C)cc2c(c1O)[C@@H]1C3Cc4c(O)c(C)c5c(c4[C@H](CNC(=O)[C@H](C)N)N3[C@@H](C#N)[C@H](C2)N1C)OCO5 (some centres unmarked) | 0.18 µM | 0.18 µM | 0.8 µM | 0.9 µM | 0.9 µM |  |  |  |  |  |
| COc1c(C)cc2c(c1O)[C@@H]1C3Cc4c(O)c(C)c5c(c4[C@H](CNC(=O)[C@H](C)NC(=S)Nc4ccccc4)N3[C@@H](C#N)[C@H](C2)N1C)OCO5 (some centres unmarked) | 0.14 µM | 0.14 µM | 0.14 µM | 0.14 µM | 0.14 µM |  |  |  |  |  |
| COc1c(C)cc2c(c1O)[C@@H]1C3Cc4c(OC(C)=O)c(C)c5c(c4[C@H](CNC(=O)[C@H](C)NC(=O)/C=C/c4ccccc4)N3[C@@H](C#N)[C@H](C2)N1C)OCO5 (some centres unmarked) | 0.001 µM | 0.0005 µM | 0.001 µM | 0.001 µM | 0.0005 µM |  |  |  |  |  |
| CCCC(=O)N[C@H](C)C(=O)NC[C@H]1c2c(c(OC(C)=O)c(C)c3c2OCO3)CC2[C@H]3c4c(cc(C)c(OC)c4O)C[C@@H]([C@H](C#N)N21)N3C (some centres unmarked) | 0.001 µM | 0.0005 µM | 0.0005 µM | 0.001 µM | 0.001 µM |  |  |  |  |  |
| C/C=C(\OC(C)=O)C1=C(C2=COCO2)[C@H](CNC(=O)/C=C/c2ccccc2)N2C(C1)[C@H]1c3c(cc(C)c(OC)c3O)C[C@@H]([C@@H]2C#N)N1C (some centres unmarked) | 0.0001 µM | 0.0001 µM | 0.0001 µM | 0.0001 µM | 0.0001 µM |  |  |  |  |  |
| COc1c(C)cc2c(c1O)[C@@H]1C3Cc4c(OC(C)=O)c(C)c5c(c4[C@H](CNC(=O)[C@H](C)NC(=O)CCCl)N3[C@@H](C#N)[C@H](C2)N1C)OCO5 (some centres unmarked) | 0.001 µM | 0.001 µM | 0.001 µM | 0.001 µM | 0.001 µM |  |  |  |  |  |
| CCCC(=O)NC[C@H]1c2c(c(OC(C)=O)c(C)c3c2OCO3)CC2[C@H]3c4c(cc(C)c(OC)c4O)C[C@@H]([C@H](C#N)N21)N3C (some centres unmarked) | 0.0001 µM | 0.0001 µM | 0.0001 µM | 0.0005 µM | 0.0005 µM |  |  |  |  |  |
| COc1c(C)cc2c(c1O)[C@@H]1C3Cc4c(OC(C)=O)c(C)c5c(c4[C@H](CNC(=O)/C=C/c4cccc(C(F)(F)F)c4)N3[C@@H](O)[C@H](C2)N1C)OCO5 (some centres unmarked) | 0.0001 µM | 0.0001 µM | 0.0001 µM | 0.0001 µM | 0.0001 µM |  |  |  |  |  |
| COc1c(C)cc2c(c1O)[C@@H]1C3Cc4c(OC(C)=O)c(C)c5c(c4[C@H](CNC(=O)[C@H](C)NC(=O)C(F)(F)F)N3[C@@H](O)[C@H](C2)N1C)OCO5 (some centres unmarked) | 0.0001 µM | 0.0001 µM | 0.0001 µM | 0.0001 µM | 0.0001 µM |  |  |  |  |  |
| C=CCOc1c(C)c2c(c3c1CC1[C@H]4c5c(cc(C)c(OC)c5OCOC)C[C@@H]([C@H](C#N)N1[C@H]3CN)N4C)OCO2 (some centres unmarked) [drawing 80] | 0.18 µM |  |  |  |  | 1.8 µM |  |  |  |  |
| C=CCOc1c(C)c2c(c3c1CC1[C@H]4c5c(cc(C)c(OC)c5OCOC)C[C@@H]([C@H](C#N)N1[C@H]3CN)N4C)OCO2 (some centres unmarked) [drawing 81] |  |  | 0.2 µM |  |  |  | 0.2 µM | 0.2 µM | 0.2 µM | 0.2 µM |
